Experimental data reported in patent publication US20180116983A1, “COMPOUNDS FOR TREATING DISORDERS ASSOCIATED WITH BK CHANNEL MODULATION” (Canbex Therapeutics Limited, priority 2015, published 2018).
“Also recorded” adds a separate entry of the source.

What was measured:
[1] = Tolerability on repeated dosing; format: in vivo, mouse
[2] = system: C57BL/6.Fmr1 knockout mice; assay: Contextual fear conditioning in Fmr1 knockout mice; format: in vivo, mouse; details: Fmr1 knockout mice, 2 mg/kg i.v.
Protocol: Animals: C57BL/6.J. Fmr1-K02 mice, which have a deletion of the promoter and exonl of the Fmr1 gene (Mientjes et al., 2006) and C57BL/6J wild type (WT) were originated from the Jackson laboratory (Ann Harbor, USA). Mice were housed in groups (4-6 per cage) and all animals were provided with ad libitum food and water unless otherwise stated. Mice were maintained on a 12 h light/12 h dark cycle (lights off 19:00 to 7:00) in a temperature-controlled environment (21±1° C.). Testing was conducted in the light phase. Mice were housed in commercial cages and experiments were performed in line with the United Kingdom Animals (Scientific procedures) Act 1986. All experiments were conducted with experimentors blind to genotype and drug treatment. Each experimental group contained 10 animals.
Drug Treatment: VSN16R was dissolved in saline for injection intravenously via a tail vein using 2 mg/kg a 30 g needle in a volume of 0.1 ml. Animals were inspected for differences in coat appearance, to detect whether any piloerection was present. The eye condition (runny eyes or porphyria, ptosis), gait appearance, tremor, tail tone, reactivity to handling was assessed to detect adverse behavioural effect.
Contextual fear conditioning: Animals are trained to expect an electroshock treatment within a defined environment, such that on subsequent presentation of the environment, freezing behaviours are induced. […]

Half-life by route = format: in vivo
rat mesenteric arteries = assay: Vasodilation in rat mesenteric arteries (wire myograph)
Protocol: Rats were stunned by a blow to the back of their neck and killed by cervical dislocation in compliance with schedule 1 of the UK Animals (Scientific Procedures) Act 1986.
Segments (2 mm in length) were mounted in a Mulvany-Halpern type wire myograph (Model 610M; Danish Myo Technology, Aarhus, Denmark) and maintained at 37° C. in gassed (95% O2/5% CO2) Krebs-Henseleit solution of the following composition (mM): NaCl 118, KCl 4.7, MgSO4 1.2, KH2PO4 1.2, NaHCO, 25, CaCl2 2, D-glucose 10 as previously described (Ho and Randall, 2007). Arteries were equilibrated and set to a basal tension of 2-2.5 mN. The integrity of the endothelium was assessed by precontracting the vessel with 10 μM methoxamine (an α1-adrenoceptor agonist), followed by relaxation with 10 μM carbachol (a muscarinic acetylcholine receptor agonist); vessels showing relaxations of greater than 90% were designated as endothelium-intact. When endothelium was not required, it was removed by rubbing the intima with a human hair; carbachol-induced relaxation of less than 10% indicated successful removal. After the test for endothelial integrity, arteries were left for 30 min and then precontracted with 10 μM methoxamine (or 60 mM KCl), this was followed by construction of a cumulative concentration-relaxation curve to VSN16R (10 nM-1 μM). Most experiments were performed in matched vessels; effects of putative modulators or endothelial removal were compared with the control responses obtained in separate vessels of the same rat. Potential modulators were added to the myograph bath 30 min before measurement, and kept present during, construction of the concentration-relaxation curve.

[3] = Intraocular pressure (IOP) after topical application; format: in vivo, rats; details: for IOP, mean: BL 11.18
Protocol: The effect of VSN16R on IOP was measured using the techniques described in the literature (Guo L. et aI, Investigative Ophthalmology & Visual Science, January 2005, Vol 46, No. 1 p 175-182; Guo L. et al, Investigative Ophthalmology & Visual Science, February 2006, Vol 47, No. 2 p 626-633; Cordeiro F. et al, PNAS, Aug. 14, 2007; Vol 104; No. 33, p 13444-13449; Cordeiro F. et al, PNAS, Sep. 7, 2004; Vol 101; No. 36, p 13352-13356).

[4] = Known efficacious oral dose (model not stated); format: in vivo; details: p.o.
KNCMA1 = target: T1, KNCMA1 (Sus scrofa, UniProt O18866); assay: Inside-out patch clamp of pig aortic endothelial cells; format: cell-based
T1 construct: endogenous in cells; host or cells: primary pig aortic endothelial cells
T1 sequence (O18866 whole entry): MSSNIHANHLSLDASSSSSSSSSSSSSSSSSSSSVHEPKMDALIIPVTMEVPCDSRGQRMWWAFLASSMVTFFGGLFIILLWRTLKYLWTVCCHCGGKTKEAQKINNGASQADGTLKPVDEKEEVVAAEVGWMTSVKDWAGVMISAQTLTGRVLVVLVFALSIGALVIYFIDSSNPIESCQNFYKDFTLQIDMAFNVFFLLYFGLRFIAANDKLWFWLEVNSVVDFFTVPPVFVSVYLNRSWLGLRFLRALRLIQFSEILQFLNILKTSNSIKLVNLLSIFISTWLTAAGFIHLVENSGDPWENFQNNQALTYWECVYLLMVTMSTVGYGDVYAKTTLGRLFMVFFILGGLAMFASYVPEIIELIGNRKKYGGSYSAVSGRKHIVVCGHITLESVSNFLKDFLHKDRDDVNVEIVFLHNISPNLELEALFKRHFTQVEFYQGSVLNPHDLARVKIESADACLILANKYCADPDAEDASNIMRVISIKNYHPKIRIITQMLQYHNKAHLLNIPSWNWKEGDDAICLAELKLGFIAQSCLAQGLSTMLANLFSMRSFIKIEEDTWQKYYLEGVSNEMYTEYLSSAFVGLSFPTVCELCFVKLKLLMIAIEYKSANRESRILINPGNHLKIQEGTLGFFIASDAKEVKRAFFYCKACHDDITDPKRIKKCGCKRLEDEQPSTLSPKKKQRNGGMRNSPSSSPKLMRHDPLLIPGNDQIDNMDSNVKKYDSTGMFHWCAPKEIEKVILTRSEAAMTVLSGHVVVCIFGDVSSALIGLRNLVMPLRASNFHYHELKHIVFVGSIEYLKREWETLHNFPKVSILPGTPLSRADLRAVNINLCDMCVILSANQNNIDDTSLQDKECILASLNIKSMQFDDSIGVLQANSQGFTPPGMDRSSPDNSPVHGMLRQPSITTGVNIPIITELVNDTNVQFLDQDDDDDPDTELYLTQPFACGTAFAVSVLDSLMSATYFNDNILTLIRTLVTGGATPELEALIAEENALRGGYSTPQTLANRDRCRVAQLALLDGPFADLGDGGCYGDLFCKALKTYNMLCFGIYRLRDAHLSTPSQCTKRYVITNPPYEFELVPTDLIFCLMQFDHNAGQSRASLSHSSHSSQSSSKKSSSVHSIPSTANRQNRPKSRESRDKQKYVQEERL

BK channel = BK channel (Homo sapiens, UniProt Q12791); assay: Whole-cell patch clamp, BK current and membrane potential in EA.hy926 cells; format: cell-based; design: The human umbilical vein derived endothelial cell line, EA.hy926; endogenous in cells; host or cells: EA.hy926 human endothelial cell line
Chain of BK channel (Q12791 1-1178 isoform Q12791-5): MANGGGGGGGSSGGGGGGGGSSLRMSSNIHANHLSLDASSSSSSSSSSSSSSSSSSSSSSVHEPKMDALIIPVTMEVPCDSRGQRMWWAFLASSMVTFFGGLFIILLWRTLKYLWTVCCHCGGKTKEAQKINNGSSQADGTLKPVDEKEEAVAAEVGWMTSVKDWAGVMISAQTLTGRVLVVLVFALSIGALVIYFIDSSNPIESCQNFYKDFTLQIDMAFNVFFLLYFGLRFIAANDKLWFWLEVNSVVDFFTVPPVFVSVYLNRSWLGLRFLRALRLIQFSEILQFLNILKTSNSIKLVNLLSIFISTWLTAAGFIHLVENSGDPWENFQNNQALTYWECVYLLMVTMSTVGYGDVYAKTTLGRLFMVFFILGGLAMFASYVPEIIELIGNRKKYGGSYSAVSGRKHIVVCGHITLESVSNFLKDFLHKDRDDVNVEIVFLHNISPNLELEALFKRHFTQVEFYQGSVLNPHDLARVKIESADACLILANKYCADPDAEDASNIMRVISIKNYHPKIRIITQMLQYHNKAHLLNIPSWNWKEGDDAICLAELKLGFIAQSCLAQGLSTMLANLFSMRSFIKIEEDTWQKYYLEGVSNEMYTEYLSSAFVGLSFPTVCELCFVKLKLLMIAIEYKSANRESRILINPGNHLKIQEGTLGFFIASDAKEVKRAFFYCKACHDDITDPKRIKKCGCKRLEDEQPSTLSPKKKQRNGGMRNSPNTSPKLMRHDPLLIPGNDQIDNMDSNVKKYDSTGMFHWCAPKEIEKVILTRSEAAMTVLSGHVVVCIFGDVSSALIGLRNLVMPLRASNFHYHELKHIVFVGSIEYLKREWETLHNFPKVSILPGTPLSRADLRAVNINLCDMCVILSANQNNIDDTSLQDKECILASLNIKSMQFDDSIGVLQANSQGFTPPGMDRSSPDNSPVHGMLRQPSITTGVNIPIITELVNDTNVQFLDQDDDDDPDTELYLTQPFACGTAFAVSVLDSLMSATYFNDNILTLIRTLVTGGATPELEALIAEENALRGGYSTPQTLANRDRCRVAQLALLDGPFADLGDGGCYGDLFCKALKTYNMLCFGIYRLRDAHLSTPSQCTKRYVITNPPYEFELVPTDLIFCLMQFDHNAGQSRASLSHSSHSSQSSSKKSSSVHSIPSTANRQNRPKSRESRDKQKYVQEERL
Chain of BK channel (Q86W47 whole entry partner): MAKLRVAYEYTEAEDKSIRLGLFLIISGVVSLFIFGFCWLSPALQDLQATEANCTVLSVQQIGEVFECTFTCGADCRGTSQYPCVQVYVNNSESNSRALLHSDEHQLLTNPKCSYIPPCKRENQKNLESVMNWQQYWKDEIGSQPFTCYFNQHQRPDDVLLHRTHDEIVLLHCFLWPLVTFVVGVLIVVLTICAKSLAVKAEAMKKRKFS
Protocol: The human umbilical vein derived endothelial cell line, EA.hy926 (Edgell et al., Proc Natl Acad Sci USA. 1983 June; 80(12): 3734-7) at passage >45 was grown in DMEM containing 10% FCS and 1% HAT (5 mM hypoxanthine, 20 μM aminopterin, 0.8 mM thymidine) and cells were maintained in an incubator at 37° C. in 5% CO2 atmosphere. Cells were plated on either 10 mm (for patch-clamp recordings) or 30 mm glass cover slips (for Ca^2+ measurements).
Membrane potential of EA.hy926 cells was recorded using the perforated patch clamp technique as described previously (Bondarenko et al, 2010, Br. J. Pharmacol. 161, 308-320). For membrane potential recordings from EA.hy926 cells the standard bath solution contained (in mM): 140 NaCl, 5 KCl, 1.2 MgCl2, 10 HEPES, 10 glucose, 2.4 CaCl2, patch pipettes were filled with a solution containing (in mmol/L): 140 KCl; 0.2 EGTA; 10 HEPES (pH adjusted to 7.2 using KOH). The resistance of the pipettes was 3-5 MΩ for whole cell and 6-8 MΩ for single channel recordings.

## C[C@H](CO)NC(=O)c1cccc(/C=C\CCCC(=O)N(C)C)c1 [VSN16R]
[1]; 2 mg/kg i.v. over 2 weeks
  tolerability: well tolerated and no instances of toxicity were observed; also recorded: well tolerated
[1]; daily, p.o.
  tolerable dose: ≥ 1000 mg/kg
[2]
  fear conditioning (freezing): inhibits the development of fear conditioning; also recorded: significantly (P<0.001) limited the exaggerated behaviour
Half-life by route; intravenous route
  t½: 6 min
Half-life by route; oral vs intravenous
  half-life, oral route relative to intravenous route: 10 times
Rat mesenteric arteries; 50 nM charybdotoxin
  relaxation of rat mesenteric arteries in the presence of charybdotoxin: inhibited by antagonists of BKCa channels
Rat mesenteric arteries; 50 nM iberotoxin
  relaxation of rat mesenteric arteries in the presence of iberotoxin: blocked by iberotoxin; also recorded: can be inhibited by the specific BK channel blocker iberiotoxin; also recorded: inhibited by antagonists of BKCa channels
Rat mesenteric arteries; FIG. 9, reduction of endothelial tone
  activation of calcium activated potassium channels in arterial vasodilation assay: activates calcium activated potassium channels
Rat mesenteric arteries; apamin alone
  relaxation of rat mesenteric arteries in the presence of apamin alone: non-significant blockade
Rat mesenteric arteries; combination of apamin and charybdotoxin
  relaxation of rat mesenteric arteries in the presence of apamin and charybdotoxin: blocked
Rat mesenteric arteries; extracellular 60 mM KCl
  relaxation of rat mesenteric arteries in the presence of 60 mM KCl: inhibiting VSN16R activity; also recorded: produced no relaxation
Rat mesenteric arteries; pre-contracted with methoxamine, endothelium intact vs denuded
  relaxation of rat mesenteric arteries: relaxed; also recorded: can induce vasorelaxation in an endothelium-dependent (P<0.001) manner
[3]; 0.5 h after VSN16R, p<0.05
  IOP, mean: 9.82 mmHg
[3]; 1 h after VSN16R, not significant
  IOP, mean: 10.79 mmHg
[3]; topical to the eye, normal rats
  effect on intraocular pressure: reduces intraocular pressure
[4]
  known efficacy dose: ≥ 1 mg/kg
KNCMA1
  response in inside-out patch: does not give a response
BK channel; EA.hy926 cells
  membrane potential: induces sustained hyperpolarisation
BK channel; human EA.hy926 cells, current blocked by paxilline
  whole-cell BK current: induces a BKca specific current; also recorded: induces currents that are sensitive to paxilline
